Laboratory results taken from PubChem BioAssay AID248 (DTP/NCI, 2004).
Values joined by “and” are separate entries in the source; they are usually repeats but may differ in a detail not shown here. Equal entries are not always repeated. Toxic doses and inconclusive results are not listed.

Test system: L1210 leukemia ip in BDF1 mice, survival T/C
Test: NCI In Vivo Anticancer Drug Screen. Data for tumor model L1210 Leukemia (intraperitoneal) in B6D2F1 (BDF1) mice
Settings: endpoint: mean survival time, higher = longer survival
Method in brief: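 Mice bearing the transplanted tumor received compound or vehicle. Survival of the treated group was divided by that of the vehicle-treated control group to give the ratio.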

[1] = dose: 100.0 mg/kg/injection, schedule: Q01DX009 (ip), vehicle: Klucel (hydroxypropylcellulose) (HPC)
[2] = dose: 200.0 mg/kg/injection, schedule: Q01DX009 (ip), vehicle: Klucel (hydroxypropylcellulose) (HPC)
[3] = dose: 400.0 mg/kg/injection, schedule: Q01DX009 (ip), vehicle: Klucel (hydroxypropylcellulose) (HPC)
[4] = dose: 50.0 mg/kg/injection, schedule: Q01DX009 (ip), vehicle: saline
[5] = dose: 100.0 mg/kg/injection, schedule: Q01DX009 (ip), vehicle: saline
[6] = dose: 100.0 mg/kg/injection, schedule: Q04DX003 (ip), vehicle: saline
[7] = dose: 200.0 mg/kg/injection, schedule: Q01DX009 (ip), vehicle: saline
[8] = dose: 200.0 mg/kg/injection, schedule: Q04DX003 (ip), vehicle: saline
[9] = dose: 50.0 mg/kg/injection, schedule: Q01DX001 (ip), vehicle: saline
[10] = dose: 100.0 mg/kg/injection, schedule: Q01DX001 (ip), vehicle: saline
[11] = dose: 200.0 mg/kg/injection, schedule: Q01DX001 (ip), vehicle: saline
[12] = dose: 100.0 mg/kg/injection, schedule: Q01DX009 (ip), vehicle: saline with Tween-80
[13] = dose: 400.0 mg/kg/injection, schedule: Q01DX009 (ip), vehicle: saline
[14] = dose: 100.0 mg/kg/injection, schedule: Q04DX002 (ip), vehicle: Klucel (hydroxypropylcellulose) (HPC)
[15] = dose: 200.0 mg/kg/injection, schedule: Q04DX002 (ip), vehicle: Klucel (hydroxypropylcellulose) (HPC)
[16] = dose: 100.0 mg/kg/injection, schedule: Q04DX003 (ip), vehicle: saline with Tween-80
[17] = dose: 200.0 mg/kg/injection, schedule: Q04DX003 (ip), vehicle: saline with Tween-80
[18] = dose: 400.0 mg/kg/injection, schedule: Q04DX003 (ip), vehicle: saline

Compound: c1ccc(N/N=C(/C[n+]2cc3ccccc3c3ccccc32)c2ccccc2)cc1
- T/C (dose: 12.5 mg/kg/injection, schedule: Q01DX009 (ip), vehicle: Klucel (hydroxypropylcellulose) (HPC)): 100 % of control
- T/C (dose: 25.0 mg/kg/injection, schedule: Q01DX009 (ip), vehicle: Klucel (hydroxypropylcellulose) (HPC)): 89 % of control
- T/C (dose: 50.0 mg/kg/injection, schedule: Q01DX009 (ip), vehicle: Klucel (hydroxypropylcellulose) (HPC)): 102 % of control
- T/C [1]: 100 % of control

Compound: CCN(Cc1ccccc1)C(=O)Nc1ccc(OC)cc1
- T/C [1]: 103 % of control
- T/C [2]: 97 % of control
- T/C [3]: 106 % of control

Compound: CNC(=O)Oc1c([N+](=O)[O-])cc([N+](=O)[O-])c2ccccc12
- T/C (dose: 75.0 mg/kg/injection, schedule: Q01DX001 (ip), vehicle: other): 111 % of control
- T/C (dose: 150.0 mg/kg/injection, schedule: Q01DX001 (ip), vehicle: other): 102 % of control

Compound: Cc1ncc(CCl)c(CCl)c1O
- T/C [4]: 95 % of control
- T/C [5]: 92 % of control
- T/C [6]: 98 % of control
- T/C [7]: 97 % of control
- T/C [8]: 97 % of control

Compound: CN1CN(c2ccccc2)C2(CCN(CCCCCCCl)CC2)C1=O
- T/C (dose: 75.0 mg/kg/injection, schedule: Q04DX003 (ip), vehicle: Klucel (hydroxypropylcellulose) (HPC)): 95 % of control
- T/C (dose: 150.0 mg/kg/injection, schedule: Q04DX003 (ip), vehicle: Klucel (hydroxypropylcellulose) (HPC)): 96 % of control
- T/C (dose: 300.0 mg/kg/injection, schedule: Q04DX003 (ip), vehicle: Klucel (hydroxypropylcellulose) (HPC)): 95 % of control

Compound: COc1ccc(NC(=O)Nc2ccc(C3=NCCN3)cc2)cc1NC(=O)Nc1ccc(C2=NCCN2)cc1
- T/C (dose: 8.0 mg/kg/injection, schedule: Q01DX Z (ip), vehicle: carboxymethylcellulose (CMC)): 107 % of control
- T/C (dose: 16.0 mg/kg/injection, schedule: Q01DX Z (ip), vehicle: carboxymethylcellulose (CMC)): 102 % of control
- T/C (dose: 31.0 mg/kg/injection, schedule: Q01DX Z (ip), vehicle: carboxymethylcellulose (CMC)): 100 % of control
- T/C (dose: 62.0 mg/kg/injection, schedule: Q01DX Z (ip), vehicle: carboxymethylcellulose (CMC)): 104 % of control
- T/C (dose: 125.0 mg/kg/injection, schedule: Q01DX Z (ip), vehicle: carboxymethylcellulose (CMC)): 102 % of control

Compound: C=C(C)C1Cc2c(ccc3c(=O)c4c(oc23)C(O)Oc2cc(OC)c(OC)cc2-4)O1 (stereo not given)
- T/C [1]: 93 % of control
- T/C [2]: 95 % of control
- T/C [3]: 97 % of control

Compound: CN(CCN(N=O)C(N)=O)[N+](=O)[O-]
- T/C (dose: 100.0 mg/kg/injection, schedule: Q04DX002 (ip), vehicle: other): 98 % of control
- T/C (dose: 200.0 mg/kg/injection, schedule: Q04DX002 (ip), vehicle: other): 94 % of control
- T/C (dose: 400.0 mg/kg/injection, schedule: Q04DX002 (ip), vehicle: other): 109 % of control

Compound: Nc1ccc2c(c1)/C(=N/O)c1cc(Br)ccc1-2
- T/C (dose: 100.0 mg/kg/injection, schedule: Q01DX001 (ip), vehicle: carboxymethylcellulose (CMC)): 110 % of control
- T/C (dose: 200.0 mg/kg/injection, schedule: Q01DX001 (ip), vehicle: carboxymethylcellulose (CMC)): 102 % of control
- T/C (dose: 400.0 mg/kg/injection, schedule: Q01DX001 (ip), vehicle: carboxymethylcellulose (CMC)): 100 % of control

Compound: CC(=O)/C(=C\c1ccc(N(C)C)cc1)C(C)=[N+](C)C(=O)c1c(/[N+](C)=C(C)\C(=C\c2ccc(N(C)C)cc2)C(C)=O)ncn1C
- T/C [9]: 103 % of control
- T/C [10]: 103 % of control and 90 % of control
- T/C [11]: 97 % of control and 118 % of control

Compound: CCOc1ccccc1NCN1C(=O)c2ccccc2C1=O
- T/C [12]: 90 % of control
- T/C (dose: 200.0 mg/kg/injection, schedule: Q04DX002 (ip), vehicle: saline with Tween-80): 223 % of control
- T/C (dose: 400.0 mg/kg/injection, schedule: Q04DX002 (ip), vehicle: saline with Tween-80): 91 % of control

Compound: Cc1[nH]c(=O)[nH]c(=O)c1CN(C)Cc1cc(Cl)cc(Cl)c1O
- T/C [9]: 95 % of control
- T/C [10]: 95 % of control
- T/C [11]: 95 % of control
- T/C (dose: 400.0 mg/kg/injection, schedule: Q01DX001 (ip), vehicle: saline): 101 % of control

Compound: CCN(CC)CCOc1ccc(C(=O)/C(=C/c2ccc(OC)cc2)c2ccccc2)cc1
- T/C (dose: 100.0 mg/kg/injection, schedule: Q04DX003 (sc), vehicle: olive oil, sesame oil, peanut oil): 100 % of control
- T/C (dose: 200.0 mg/kg/injection, schedule: Q04DX003 (sc), vehicle: olive oil, sesame oil, peanut oil): 96 % of control
- T/C (dose: 400.0 mg/kg/injection, schedule: Q04DX003 (sc), vehicle: olive oil, sesame oil, peanut oil): 108 % of control

Compound: O=C(Nc1cccc(Cl)c1Cl)OCCN1CCNC1=S
- T/C [5]: 94 % of control
- T/C [7]: 96 % of control
- T/C [13]: 102 % of control

Compound: C/C(=N\N=C(/C)c1ccccc1O)c1ccccc1O
- T/C (dose: 100.0 mg/kg/injection, schedule: Q04DX002 (ip), vehicle: gum acacia): 96 % of control
- T/C (dose: 200.0 mg/kg/injection, schedule: Q04DX002 (ip), vehicle: gum acacia): 93 % of control
- T/C (dose: 400.0 mg/kg/injection, schedule: Q04DX002 (ip), vehicle: gum acacia): 101 % of control

Compound: C[C@]12CC[C@@H]3c4ccc(OC(=O)Cc5ccc(N(CCCl)CCCl)cc5)cc4CC[C@H]3[C@@H]1CC[C@@H]2OC(=O)Cc1ccc(N(CCCl)CCCl)cc1
- T/C (dose: 100.0 mg/kg/injection, schedule: Q01DX001 (sc), vehicle: steriod suspending solution): 97 % of control
- T/C (dose: 200.0 mg/kg/injection, schedule: Q01DX001 (sc), vehicle: steriod suspending solution): 102 % of control
- T/C (dose: 400.0 mg/kg/injection, schedule: Q01DX001 (sc), vehicle: steriod suspending solution): 102 % of control

Compound: CC(OC(=O)c1ccc([N+](=O)[O-])cc1)C(C)(C)C (stereo not given)
- T/C [14]: 109 % of control
- T/C [15]: 123 % of control
- T/C (dose: 400.0 mg/kg/injection, schedule: Q04DX002 (ip), vehicle: Klucel (hydroxypropylcellulose) (HPC)): 113 % of control

Compound: CCO/C=C1/C(=O)N(C)c2c1c(=O)n(C)c(=O)n2C
- T/C [14]: 106 % of control
- T/C [15]: 109 % of control

Compound: CCCCCCCCCCCCC(CCCCCCCCCCCC)c1ccccc1
- T/C (dose: 100.0 mg/kg/injection, schedule: Q01DX001 (ip), vehicle: Klucel (hydroxypropylcellulose) (HPC)): 112 % of control
- T/C (dose: 200.0 mg/kg/injection, schedule: Q01DX001 (ip), vehicle: Klucel (hydroxypropylcellulose) (HPC)): 100 % of control
- T/C (dose: 400.0 mg/kg/injection, schedule: Q01DX001 (ip), vehicle: Klucel (hydroxypropylcellulose) (HPC)): 96 % of control

Compound: CCOc1ccc(Br)cc1/C=N\N=C\c1cc(Br)ccc1OCC
- T/C (dose: 25.0 mg/kg/injection, schedule: Q01DX009 (ip), vehicle: saline): 101 % of control
- T/C [4]: 100 % of control
- T/C [5]: 100 % of control
- T/C [6]: 86 % of control

Compound: COc1cc(Cl)ccc1C
- T/C (dose: 50.0 mg/kg/injection, schedule: Q01DX009 (ip), vehicle: saline with Tween-80): 98 % of control
- T/C [12]: 93 % of control
- T/C [16]: 93 % of control
- T/C (dose: 200.0 mg/kg/injection, schedule: Q01DX009 (ip), vehicle: saline with Tween-80): 90 % of control
- T/C [17]: 89 % of control

Compound: O=c1[nH]cc(CCCO)c(=O)[nH]1
- T/C [5]: 88 % of control
- T/C [6]: 103 % of control
- T/C [7]: 93 % of control
- T/C [8]: 100 % of control
- T/C [13]: 88 % of control
- T/C [18]: 92 % of control

Compound: OC1(c2ccccc2)CCN(C/C=C/c2ccccc2Cl)CC1
- T/C [16]: 92 % of control
- T/C [17]: 93 % of control
- T/C (dose: 400.0 mg/kg/injection, schedule: Q04DX003 (ip), vehicle: saline with Tween-80): 90 % of control

Compound: Cc1cc(=O)n(-c2ccccc2)n1C
- T/C [6]: 104 % of control
- T/C [8]: 106 % of control
- T/C [18]: 106 % of control

Compound: C=CCC(Cc1cc(CC(CC=C)(C(=O)OCC)C(=O)OCC)cc(CC(CC=C)(C(=O)OCC)C(=O)OCC)c1)(C(=O)OCC)C(=O)OCC
- T/C (dose: 100.0 mg/kg/injection, schedule: Q04DX003 (ip), vehicle: acetone): 107 % of control
- T/C (dose: 200.0 mg/kg/injection, schedule: Q04DX003 (ip), vehicle: acetone): 90 % of control
- T/C (dose: 400.0 mg/kg/injection, schedule: Q04DX003 (ip), vehicle: acetone): 96 % of control
